# Tested on: blood flow in the lower gingiva
# Assay: Blood flow improvement in the gingiva using tablets (Example 3)
# Type: in vivo, human
# Settings: gradually dissolved in the mouth (two tablets, about 2 mg extract; vitamin E 100 mg alone), four volunteers, mean ± standard deviation
# Experimental: Next, using the tablets, an experiment was conducted with respect to the effect of improving blood flow in a tissue (the gingiva) of the mouth through the cooperation of four of the five volunteers in Example 1. More specifically, first, the volunteers put two tablets in their mouths, and ingested the tablets into the body while gradually dissolving the tablets in their mouths. Next, at predetermined times (five minutes and 15 minutes) after completion of ingestion of the tablets, the blood flow in the lower gingiva was measured with a blood flow meter. It should be noted that the blood flow meter and others that were used herein are the same as those in Example 1. Moreover, as an example of a substance that improves blood flow, vitamin E (100 mg) alone was ingested while being gradually dissolved in the mouth, and the blood flow was also measured. Furthermore, the tablets containing the pine bark extract (two tablets) were ingested by being swallowed at one gulp with 10 mL of distilled water, instead of being gradually dissolved in the mouth, and the blood flow was also measured.
# The results of the blood flow measurement are shown as relative values, taking the measurement results of the blood flow measurement performed before putting the tablets in the mouth as 100. […]
substance,measurement,setting,value
vitamin E,"blood flow in the lower gingiva, relative value (before putting the tablets in the mouth = 100)",5 min after ingestion,116.99 ± 14.39
same,"blood flow in the lower gingiva, relative value (before putting the tablets in the mouth = 100)",15 min after ingestion,105.63 ± 16.16

# — patent US20070166246A1, “Composition for oral cavity” (TOYO SHINYAKU CO., LTD., priority 2004, published 2007)
